# Assay results as given in patent US11198680B2 (BioAxone BioSciences, Inc., priority 2016, dated 2021).
# Read-outs that look alike come from different tables or passages of the source.
# Experiments:
# ROCK1 [1] = target: T1, ROCK1 (Homo sapiens (Human), UniProt Q13464); assay: Direct filter-binding radiometric kinase assay, IC50 determination; format: biochemical
# Procedure: Variations in ATP concentrations were tested to better understand potential selectivity in ischemic and diseased tissue where ATP concentrations may be low and impact selectivity.
# […] Both services use a direct filter-binding, radiometric kinase assay with slight variation in protocol.
# The top concentration tested was 100 μM for both services. Test compounds were prepared in 100% DMSO at 50× final test concentration and were diluted to 1× in the assay with a final DMSO concentration of 2%.
# For one assay, the substrate […] (SEQ ID NO:1) (30 μM) was mixed with reaction buffer (Table 4) and the kinase domain from either the ROCK1 or ROCK2 (as indicated in Table 4). Next, the compounds (in DMSO) were delivered into the mixture via acoustic mixing technology (Echo550, nanoliter range) (SelectScience, Waltham, Mass.), and incubated at RT for 20 min. […] Reactions were then spotted onto P81 ion exchange paper followed by scintillation counting.
# The reaction was stopped by the addition of 3% phosphoric acid and 10 μL of the reaction was spotted onto P30 filtermat, washed 3 times in 75 mM phosphoric acid and once in methanol prior to scintillation counting.
# ROCK2 [2] = target: T2, ROCK2 (Homo sapiens (Human), UniProt O75116); assay: as above; format: biochemical
# T2 sequence (O75116 whole entry, species assumed): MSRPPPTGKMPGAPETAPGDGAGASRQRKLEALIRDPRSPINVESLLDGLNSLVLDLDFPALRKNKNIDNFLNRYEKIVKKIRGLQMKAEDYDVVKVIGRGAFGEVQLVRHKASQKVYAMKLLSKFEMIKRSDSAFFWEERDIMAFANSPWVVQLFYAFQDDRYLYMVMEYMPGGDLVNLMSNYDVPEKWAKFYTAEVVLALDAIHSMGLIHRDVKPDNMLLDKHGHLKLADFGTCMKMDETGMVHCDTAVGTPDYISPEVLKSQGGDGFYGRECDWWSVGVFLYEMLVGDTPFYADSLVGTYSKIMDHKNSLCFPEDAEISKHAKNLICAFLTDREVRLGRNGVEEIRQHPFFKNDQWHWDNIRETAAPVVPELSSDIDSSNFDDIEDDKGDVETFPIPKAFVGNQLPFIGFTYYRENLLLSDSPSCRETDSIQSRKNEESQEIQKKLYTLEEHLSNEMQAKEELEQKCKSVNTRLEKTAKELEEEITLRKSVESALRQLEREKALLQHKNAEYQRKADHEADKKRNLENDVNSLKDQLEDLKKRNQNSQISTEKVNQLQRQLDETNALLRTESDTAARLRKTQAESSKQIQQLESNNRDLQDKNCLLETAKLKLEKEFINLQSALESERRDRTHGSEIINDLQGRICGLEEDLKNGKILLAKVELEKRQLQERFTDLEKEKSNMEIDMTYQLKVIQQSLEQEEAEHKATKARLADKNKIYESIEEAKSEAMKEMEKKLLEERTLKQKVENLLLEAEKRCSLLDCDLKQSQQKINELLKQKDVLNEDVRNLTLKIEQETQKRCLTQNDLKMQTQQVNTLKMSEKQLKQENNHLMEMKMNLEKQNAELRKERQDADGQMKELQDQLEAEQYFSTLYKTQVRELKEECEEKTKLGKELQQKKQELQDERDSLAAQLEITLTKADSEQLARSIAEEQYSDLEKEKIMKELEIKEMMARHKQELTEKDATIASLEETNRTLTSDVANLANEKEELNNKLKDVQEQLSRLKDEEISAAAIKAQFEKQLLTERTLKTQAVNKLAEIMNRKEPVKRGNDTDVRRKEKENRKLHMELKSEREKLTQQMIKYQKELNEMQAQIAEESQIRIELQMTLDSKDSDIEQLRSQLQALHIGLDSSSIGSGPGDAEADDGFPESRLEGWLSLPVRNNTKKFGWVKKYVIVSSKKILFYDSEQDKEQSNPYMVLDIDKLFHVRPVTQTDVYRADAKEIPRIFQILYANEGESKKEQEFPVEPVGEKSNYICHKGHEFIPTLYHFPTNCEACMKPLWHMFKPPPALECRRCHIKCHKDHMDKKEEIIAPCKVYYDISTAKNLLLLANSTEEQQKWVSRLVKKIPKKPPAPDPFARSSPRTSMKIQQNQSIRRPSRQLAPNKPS
# [3] = system: Rho/ROCK activity (MLC2 diphosphorylation) in HUVECs; assay: LPA-treated HUVECs, pMLC2 T18/S19 immunoblot; format: cell-based, human; conditions: 1-100 μM 1 hr, 20 μM LPA 5 min
# Procedure: (§1) Cell lines were exposed to each dose for 1 hr, and then are stimulated with 20 μM LPA for either 5 min or 1 hr as described below. All experiments were conducted in triplicate and analyzed by two independent assessors blinded to both cell line and treatment.
# Cells were subjected to biochemical analysis of diphosphorylated MLC2 (Threonine 18/Serine 19 phosphorylation sites) and cofilin (Serine 9 phosphorylation site) using SDS-PAGE and immunoblotting. Cells were plated in 24-well tissue culture plates coated with 70 μg/ml rat collagen-1 (Corning; Corning, N.Y.), and grown for 2 d to 3 d at 37° C./5% CO2 until confluency. […] Then medium was exchanged for Medium 200 supplemented with 0.1% HSA (Sigma-Aldrich) and 20 μM of LPA (Santa Cruz Biotech; Santa Cruz, Calif.) and incubated for 5 min. After LPA stimulation, proteins were extracted from cells by lysis with RIPA buffer supplemented with HALT complete protease/phosphatase inhibitor (ThermoFisher, Waltham, Mass.), reduced and denatured using Laemmli sample buffer (BioRad, Hercules, Calif.)/beta-mercaptoethanol and subjected to SDS-PAGE.
# Denatured samples were electrophoresed in reducing 10% Bis-Tris-gels polyacrylamide gels (Novex; Thermo-Fisher, Waltham, Mass.) and were transferred onto 0.25 μm PVDF membranes (EMD Millipore, Billerica, Mass.). Membranes are probed using amti-pMLC2 T18/S19 (1:500; Cell Signaling, Danvers, Mass.) or anti-pCofilin S9 (1:500, Cell Signaling, Danvers, Mass.) and anti-glyceraldehyde 3-phosphate dehydrogenase loading control (GAPDH, 1:10000; Abcam). Protein levels were detected using chemiluminescence substrate (Super Signal West, ThermoFisher, Waltham, Mass.) and images captured using a FluoroChem SP Imaging System.
# HUVEC monolayer = assay: LPA-treated HUVECs, endothelial monolayer integrity; format: cell-based, human; conditions: 1 μM or 10 μM, 20 μM LPA 60 min
# Procedure: as §1
# To examine HUVEC monolayer integrity, cells were plated on PDL-coated coverslips (Corning) coated with fibronectin, collagen-1 and gelatin. 50,000 cells were seeded on each coverslip situated in a 24-well plate. Cells were grown for 3 days at 37° C./5% CO2. […] The medium was exchanged by Medium 200 supplemented with 0.1% HSA and 20 μM of LPA (Santa Cruz) and incubated for 60 min.
# After LPA stimulation, cells were fixed with 4% paraformaldehyde and stained for actin-phalloidin (ThermoFisher, Waltham, Mass.) and V-Cadherin (Cell Signaling, Danvers, Mass.) and mounted on microscope slides. Coverslips were imaged by fluorescence microscopy and the cell free holes in the monolayer are measured using Image J (freeware; https://imagej.nih.gov/ij/).
# [4] = system: Rho/ROCK activity (MLC2 diphosphorylation) in human brain microvascular endothelial cells; assay: LPA-treated hBMVECs, pMLC2 T18/S19 immunoblot; format: cell-based; conditions: 20 μM LPA, Example 16, present tense, no data shown
# Procedure: (§2) Cells are exposed to each dose for 1 hr, and are then stimulated with 20 μM LPA for either 5 min or 1 hr as described below. All experiments are conducted in triplicate and analyzed by 2 independent assessors blinded to both cell line and treatment.
# Cells are subjected to biochemical analysis of diphosphorylated MLC2 (Threonine 18/Serine 19 phosphorylation sites) and phosphorylated cofilin (Serine 9 phosphorylation site) using SDS-PAGE and immunoblotting. Cells are plated in 24-well tissue culture plates coated with 70 μg/ml rat collagen-1 (Corning) and grown in ENDO-growth media (Neuromics) for 3 days at 37° C./5% CO2 until confluency. […] The medium is exchanged for ENDO basal media supplemented with 1% HSA, 20 μM of LPA (Santa Cruz Biotech; Santa Cruz, Calif.) and the appropriate amount of compound being tested. After 5 min, the medium is aspirated and the cells are briefly washed with 1×PBS. Proteins are extracted from cells by lysis with RIPA buffer supplemented with complete protease/phosphatase inhibitor (HALT, Thermo Fisher Scientific), reduced and denatured using Laemmli sample buffer (BioRad; Hercules, Calif., beta-mercaptoethanol and subjected to SDS-PAGE.
# Denatured samples are electrophoresed in reducing 10% Bis-Tris-PA gels (Novex; Thermo-Fisher), and are transferred onto 0.25 μm PVDF membranes (EMD Millipore). Membranes are probed using amti-pMLC2 T18/S19 (1:500; Cell Signaling) or anti-pCofilin (1:500, Cell Signaling S9) and anti-glyceraldehyde 3-phosphate dehydrogenase loading control (GAPDH, 1:10000; Abcam, Cambridge, Mass.). Protein levels are detected using a chemiluminescence substrate (Super Signal West, ThermoFisher) and images are captured using a FluoroChem SP Imaging System.
# hBMVEC monolayer = assay: LPA-treated hBMVECs, endothelial monolayer integrity; format: cell-based, human; conditions: 1 μM or 10 μM, 20 μM LPA, Example 16, present tense
# Procedure: as §2
# To examine hBMVECs monolayer integrity, cells are plated on PDL-coated coverslips (Corning) coated with Fibronectin, Collagen-1 and gelatin. 50,000 cells are seeded on each coverslip situated in a 24-well plate. Cells are grown for 3 days in ENDO-growth media (Neuromics) at 37° C./5% CO2. […] The medium is exchanged for ENDO basal media supplemented with 1% HSA, 20 μM of LPA (Santa Cruz Biotech; Santa Cruz, Calif.) and the appropriate amount of compound being tested. After 60 min, cells were fixed with 4% paraformaldehyde and stained for actin-phalloidin (ThermoFisher) and V-Cadherin (Cell Signaling), and then were mounted on microscope slides. Coverslips were imaged by fluorescence microscopy and the cell-free holes in the monolayer are measured using Image J. 3.
# ROCK1 [5] = target: T1, ROCK1
# Procedure: (§3) The assay is performed by combining the DNA-tagged kinase, immobilized ligand, and a test compound. The ability of the test compound to compete with the immobilized ligand is measured via quantitative PCR of the DNA tag.
# (§4) The highest concentration tested was 30 μM.
# ROCK2 [6] = target: T2, ROCK2; conditions: for Fold-Difference: ROCK1 KD vs ROCK2 KD
# Procedure: as §3, §4
# [7] = system: ROCK2 activation (phospho-cofilin); assay: Transient MCAO stroke model, phospho-cofilin Western blot left versus right brain; format: in vivo, mouse; conditions: 10 mg/kg I.P. within 30 min after MCAO, tissue 24 hr post MCAO
# Procedure: The murine intraluminal monofilament model of middle cerebral artery occlusion (MCAO) is used on mice in this study. MCAO involves the insertion of a surgical filament into the external carotid artery and threading it forward into the internal carotid artery until the tip occludes the origin of the MCA, resulting in a cessation of blood flow and subsequent brain infarction in the MCA territory. The technique is used herein to model transient occlusion. If the filament is removed after 1 h, reperfusion is achieved (transient MCAO). This study determines the most efficacious dose and route of administration that reduce Rho-kinase 2 (ROCK2) activation following transient MCAO-induced stroke in mice. The pharmacodynamic response is also determined in this study.
# Twenty-eight 9-wk old C57BL/6 (Charles River Laboratories) were used in this study. For surgery, the mouse was placed in a supine position on an infrared heating pad. The fur over the ventral neck was shaved and the skin was disinfected with 70% ethanol and povidone iodine. Under a stereo dissecting microscope, a 1 cm midline incision was made on the neck and retractors were used to expose the left common carotid artery (CCA), the external carotid artery (ECA) and the internal carotid artery (ICA). The arteries were carefully dissected to free them from surrounding nerves and fascia. The ECA was dissected further distally and two 8-0 silk sutures are tied around the ECA stump and a vascular clamp was applied at the bifurcation of the CCA into the ECA and ICA. A small incision was made at the end of ECA stump with Vannas-style spring scissors. A blunt 5-0 monofilament suture (Doccol) was inserted into the incision and advanced from the lumen of the ECA into the ICA for a distance of 9-10 mm beyond the bifurcation of CCA to occlude the origin of MCA. For the mouse model, a distance of 9 mm-11 mm rostral to the CCA bifurcation is inserted. After 60 min., the monofilament was removed. The incision was sutured with 4.0 prolene sutures. […] The mouse is allowed to recover on a heating pad until thermoregulation is re-established.
# For Western blot analysis, mice were anesthetized using isoflurane and decapitated. […]
# 20 μL protease inhibitor (Halt, Protease, Fisher Scientific, Pittsburgh, Pa.) and 10 μL phosphatase inhibitor (Fisher Scientific) were added to 1 mL RIPA buffer (Santa Cruz Biotechnology, Dallas, Tex.). […] The protein concentration of each sample was determined using the DC Protein Assay Kit and following the manufacturer's instructions.
# The left and right hemispheres of each brain were homogenized and prepared for Western blotting, and the signal of phospho-cofilin was measured quantitatively by densitometry compared to an internal standard, cyclophilin. […]
# phospho-MLC2 (Ser19) = assay: Transient MCAO stroke model, phospho-MLC2 (Ser19) immunohistochemistry of insular cortex; format: in vivo, mouse; conditions: 10 mg/kg I.P.
# Procedure: For immunohistochemistry, mice were anesthetized using isoflurane and perfused intracardially using paraformaldehyde (4% PFA), brain and weights were recorded. Brain specimens from fixed animals were frozen in OCT and sectioned using a cryostat.
# Frozen tissue sections embedded in OCT were analyzed by immunohistochemistry. The left side of the brain slice contains ischemic tissue due to the MCAO while the right hemisphere acts as a control without ischemia. Staining with these antibodies provide biomarkers for both ischemic area and ROCK2 activation.
# [8] = target: NET (norepinephrine transporter) (Homo sapiens (Human), UniProt P23975); conditions: Sturdivant et al., ibid.; cited from earlier work
# [9] = target: SERT (serotonin transporter) (Homo sapiens (Human), UniProt P31645); conditions: Sturdivant et al., ibid.; cited from earlier work
# [10] = system: human umbilical vein endothelial cells (HUVECs); assay: LPA-stimulated HUVECs, actin stress fibers and vinculin; format: cell-based; conditions: 50 μM, 20 μM LPA 10 min
# Procedure: Primary HUVEC cells (Gibco®, Thermo Fisher, Waltham, Mass.) are cultured in endothelial growth media (Gibco® Medium 200 basal media Cat supplemented with Gibco® Large Vessel Endothelial Supplement). HUVECs between passage 1 and 4 are used for all experiments. HUVECs are cultured on poly-D-lysine-treated glass coverslips (Corning, Corning, N.Y.) coated with 70 μg/ml rat collagen I (Corning, Corning, N.Y.) and cultured for 4 d until a confluent monolayer of cells is established. […] Then HUVECs are stimulated with 20 μM LPA for 10 min and subsequently fixed using 4% paraformaldehyde (PFA)/sucrose solution.
# After PFA fixation, cells on coverslips are permeabilized with TBS-Triton-X100 (0.1%), blocked with 1% bovine serum albumin and incubated with mouse vinculin primary antibody (Table 16). Vinculin immunolabelling is visualized using a secondary anti-mouse fluorescent antibody (Table 16). Actin cytoskeleton is visualized by staining with fluorescent phalloidin (Table 16), a compound that specifically binds F-actin filaments. Epifluorescence microscopy is used to acquire images of Immuno- and phalloidin fluorescence, respectively.
# ROCK2 [11] = target: T2, ROCK2; assay: ROCK2 inhibition curves, MYPT1 substrate plate assay; format: biochemical; conditions: purified ROCK2, MYPT1 substrate
# Procedure: Each compound was dissolved at 100 mM in DMSO. This compound-DMSO solution is diluted to 500 μM in dH2O. Serial dilutions were prepared so that a semi-log range of compound is present after being diluted 5× in other assay reagents, from 100 μM through 1 nM.
# 10 μL of each concentration of each compound was added in duplicate to individual wells of a 96-well Maxisorp plate (ThermoFisher) pre-coated with the ROCK2 substrate MYPT1 (ThermoFisher). dH2O is added as a negative control.
# Using a multichannel pipettor, […] of final volume per well was made by the addition of the following of each solution to begin the reaction: 10 μL 20 mM MOPS pH 7.2, 25 mM β-glycerophosphate, 5 mM EGTA, 1 mM Na3VO4, and 1 mM DTT, 10 μL 50 μM ATP, 10 μL 75 mM MgCl2, and 10 μL 1 mU/μL ROCK2 solution. […]
# 100 μL TMB/E solution was added to each well with a multichannel pipette. Upon sufficient color development, the reaction was stopped using 100 μL stop solution and absorbance read using a Wallac Victor2 plate reader at 450 nm.
# Because absorbance values proportional to ROCK2 activity, plotting absorbance at 450 nm versus final concentration of metabolite and parent compound provides inhibition curves. Relative inhibitory profiles were determined through 4PL analysis of these curves. Variations in calculated IC50 are common before assay optimization due to variations in experimental variables.
# [12] = read-out: Compound IC50 ROCK1 10 μM ATP, CRO Eurofins, 10 μM ATP
# [13] = read-out: Compound IC50 ROCK2 10 μM ATP, CRO Eurofins, 10 μM ATP
# T1 sequence (Q13464 2-1354 limits assumed): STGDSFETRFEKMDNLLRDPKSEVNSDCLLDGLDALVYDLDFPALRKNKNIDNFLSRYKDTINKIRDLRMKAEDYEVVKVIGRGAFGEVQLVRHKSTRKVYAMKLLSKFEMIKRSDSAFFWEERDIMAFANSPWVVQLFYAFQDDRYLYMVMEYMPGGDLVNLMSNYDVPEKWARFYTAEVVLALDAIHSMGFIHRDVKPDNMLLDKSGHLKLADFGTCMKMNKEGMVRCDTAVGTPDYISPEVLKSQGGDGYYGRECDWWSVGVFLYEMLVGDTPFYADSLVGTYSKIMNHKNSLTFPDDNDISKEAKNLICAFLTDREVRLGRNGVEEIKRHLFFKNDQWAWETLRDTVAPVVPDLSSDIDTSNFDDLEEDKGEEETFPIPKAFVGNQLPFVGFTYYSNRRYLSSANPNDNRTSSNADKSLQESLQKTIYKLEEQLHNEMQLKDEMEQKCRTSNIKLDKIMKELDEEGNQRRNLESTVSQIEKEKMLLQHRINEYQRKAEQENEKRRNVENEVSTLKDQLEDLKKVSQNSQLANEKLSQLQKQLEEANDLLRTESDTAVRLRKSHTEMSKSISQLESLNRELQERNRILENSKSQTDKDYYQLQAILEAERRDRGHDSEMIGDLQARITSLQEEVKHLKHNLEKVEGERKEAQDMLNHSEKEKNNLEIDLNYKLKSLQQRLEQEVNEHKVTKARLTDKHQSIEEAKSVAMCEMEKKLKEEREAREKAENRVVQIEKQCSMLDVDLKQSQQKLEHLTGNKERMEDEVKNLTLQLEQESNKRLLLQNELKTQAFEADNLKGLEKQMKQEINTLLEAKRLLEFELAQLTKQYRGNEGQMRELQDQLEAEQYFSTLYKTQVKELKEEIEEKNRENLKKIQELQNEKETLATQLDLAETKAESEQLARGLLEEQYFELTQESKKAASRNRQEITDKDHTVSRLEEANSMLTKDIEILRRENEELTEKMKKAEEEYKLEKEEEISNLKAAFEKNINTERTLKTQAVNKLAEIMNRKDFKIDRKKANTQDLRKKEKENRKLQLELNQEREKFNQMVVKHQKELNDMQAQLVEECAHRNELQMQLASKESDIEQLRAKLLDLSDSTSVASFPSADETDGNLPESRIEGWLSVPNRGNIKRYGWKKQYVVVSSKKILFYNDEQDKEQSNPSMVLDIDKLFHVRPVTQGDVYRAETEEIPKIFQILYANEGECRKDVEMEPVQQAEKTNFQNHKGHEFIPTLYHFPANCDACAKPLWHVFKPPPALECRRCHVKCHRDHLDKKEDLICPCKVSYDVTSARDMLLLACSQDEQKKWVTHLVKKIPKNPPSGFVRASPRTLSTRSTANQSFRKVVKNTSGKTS
smiles,measurement,setting,value
C[C@H](N)C1CCN(S(=O)(=O)c2cccc3cnccc23)CC1,IC50,"ROCK1 [1]; 10 μM ATP, Table 2, read-out: Compound IC50 ROCK1",10.2 µM
same,IC50,ROCK1 [1]; [12],10.2 µM
same,IC50,"ROCK1 [1]; read-out: Compound IC50 ROCK1 10 μM ATP, CRO Reaction Biology, 10 μM ATP",1.44 µM
same,IC50,"ROCK1 [1]; read-out: Compound IC50 ROCK1 70 μM ATP, Km ATP 70 μM, Table 3",57.9 µM
same,IC50,"ROCK1 [1]; read-out: Compound IC50 ROCK1 70 μM ATP, Km ATP 70 μM, Table 7",57.9 µM
same,IC50,"ROCK2 [2]; 10 μM ATP, Table 2, read-out: Compound IC50 ROCK2",730 nM
same,Fold-Difference,"ROCK2 [2]; CRO Eurofins, 10 μM ATP",14.1
same,Fold-Difference,"ROCK2 [2]; CRO Reaction Biology, 10 μM ATP",2.0
same,Fold-Difference,ROCK2 [2]; ROCK1 (70 μM ATP) vs ROCK2 (15 μM ATP) IC50,57.9
same,Fold-Difference,"ROCK2 [2]; ROCK1 vs ROCK2 IC50, 10 μM ATP",14.1
same,IC50,ROCK2 [2]; [13],730 nM
same,IC50,"ROCK2 [2]; read-out: Compound IC50 ROCK2 10 μM ATP, CRO Reaction Biology, 10 μM ATP",720 nM
same,IC50,"ROCK2 [2]; read-out: Compound IC50 ROCK2 15 μM ATP, Km ATP 15 μM, Table 3",1000 nM
same,IC50,"ROCK2 [2]; read-out: Compound IC50 ROCK2 15 μM ATP, Km ATP 15 μM, Table 7",1000 nM
same,effect on MLC2 diphosphorylation (pMLC2 T18/S19),[3],reduce MLC2 diphosphorylation
same,monolayer integrity after LPA,HUVEC monolayer,neither concentration reverses the effect of LPA
same,effect on MLC2 diphosphorylation (pMLC2 T18/S19),[4],reduce MLC2 diphosphorylation
same,monolayer integrity / Rho/ROCK activation after LPA,hBMVEC monolayer,neither concentration reverses the effect of LPA
same,Kd,"ROCK1 [5]; read-out: ROCK1 KD, average of duplicate determinations, Table 5",155 nM
same,Kd,"ROCK1 [5]; read-out: ROCK1 Kd, Table 1",120 nM
same,Fold-Difference,ROCK2 [6]; Table 5,0.9
same,Fractional Selectivity for ROCK2,ROCK2 [6]; ratio of dissociation constants ROCK1/ROCK2,0.92
same,Kd,"ROCK2 [6]; read-out: ROCK2 KD, average of duplicate determinations, Table 5",160 nM
same,Kd,"ROCK2 [6]; read-out: ROCK2 Kd, Table 1",130 nM
CC(N)C1CCN(S(=O)(=O)c2cccc3cnccc23)CC1 (racemic) [BA-1049],IC50,ROCK1 [1]; [12],6.8 µM
same,IC50,"ROCK1 [1]; read-out: Compound IC50 ROCK1 10 μM ATP, CRO Reaction Biology, 10 μM ATP, listed as Racemic BA-1049: Lot 1",1.28 µM
same,IC50,"ROCK1 [1]; read-out: Compound IC50 ROCK1 10 μM ATP, CRO Reaction Biology, 10 μM ATP, listed as Racemic BA-1049: Lot 2",1.02 µM
same,IC50,"ROCK1 [1]; read-out: Compound IC50 ROCK1 10 μM ATP, CRO Upstate Cell Signaling, 10 μM ATP",10.2 µM
same,Fold-Difference,"ROCK2 [2]; CRO Eurofins, 10 μM ATP",12.4
same,Fold-Difference,"ROCK2 [2]; CRO Reaction Biology, 10 μM ATP, listed as Racemic BA-1049: Lot 1",2.1
same,Fold-Difference,"ROCK2 [2]; CRO Reaction Biology, 10 μM ATP, listed as Racemic BA-1049: Lot 2",2.8
same,Fold-Difference,"ROCK2 [2]; CRO Upstate Cell Signaling, 10 μM ATP",12.8
same,IC50,ROCK2 [2]; [13],550 nM
same,IC50,"ROCK2 [2]; read-out: Compound IC50 ROCK2 10 μM ATP, CRO Reaction Biology, 10 μM ATP, listed as Racemic BA-1049: Lot 1",600 nM
same,IC50,"ROCK2 [2]; read-out: Compound IC50 ROCK2 10 μM ATP, CRO Reaction Biology, 10 μM ATP, listed as Racemic BA-1049: Lot 2",1020 nM
same,IC50,"ROCK2 [2]; read-out: Compound IC50 ROCK2 10 μM ATP, CRO Upstate Cell Signaling, 10 μM ATP",800 nM
same,ratio of phospho-cofilin expression left (MCAO) versus right hemisphere,[7],strongly reduced
same,phospho-MLC2 (Ser19) staining of small blood vessels of insular cortex,phospho-MLC2 (Ser19),even more effective than Fasudil at reducing small vessel staining
same,Kd,"ROCK1 [5]; read-out: ROCK1 KD, average of duplicate determinations, Table 5, listed as Racemic BA-1049: Lot 1",54 nM
same,Kd,"ROCK1 [5]; read-out: ROCK1 KD, average of duplicate determinations, Table 5, listed as Racemic BA-1049: Lot 2",89 nM
same,Fold-Difference,"ROCK2 [6]; Table 5, listed as Racemic BA-1049: Lot 1",1.2
same,Fold-Difference,"ROCK2 [6]; Table 5, listed as Racemic BA-1049: Lot 2",1.3
same,Kd,"ROCK2 [6]; read-out: ROCK2 KD, average of duplicate determinations, Table 5, listed as Racemic BA-1049: Lot 1",46 nM
same,Kd,"ROCK2 [6]; read-out: ROCK2 KD, average of duplicate determinations, Table 5, listed as Racemic BA-1049: Lot 2",66 nM
Cc1ccc(C(=O)OCc2ccc([C@@H](CN)C(=O)Nc3ccc4cnccc4c3)cc2)c(C)c1 [AR-13324],"% Inhibition of Neurotransmitter Transporter Activity, NET",[8],96%
same,"% Inhibition of Neurotransmitter Transporter Activity, SERT",[9],94%
O=S(=O)(c1cccc2cnccc12)N1CCCNCC1 [Fasudil],phospho-MLC2 (Ser19) staining of small blood vessels of insular cortex,phospho-MLC2 (Ser19),reduces the amount of staining
same,actin stress fiber formation upon LPA stimulation,[10],prevents such formation of stress fiber
same,"vinculin immunofluorescence, integrity of HUVEC monolayer upon LPA stimulation",[10],upregulation of vinculin-positive focal adhesion complexes associated with a decreased cell confluency
C[C@@H](N)C1CCN(S(=O)(=O)c2cccc3c[n+]([O-])ccc23)CC1 [N-oxide-BA-1049 (R)],inhibitory activity for ROCK2 relative to parent BA-1049 (R),ROCK2 [11],does not exhibit any inhibitory activity
same,effect on MLC2 diphosphorylation (pMLC2 T18/S19),[3],did not show such an effect
same,effect on MLC2 diphosphorylation (pMLC2 T18/S19),[4],do not show such an effect
